Laboratory results: US20040180855A1, “Methods of treating thrombosis with reduced risk of increased bleeding times” (priority 2003, published 2004)

Assays:
FXIIa = molecular target: T1, FXIIa (Homo sapiens, UniProt P00748); assay: Selectivity assay FXIIa; type: biochemical; settings: Table 3
T1 construct: purchased American Diagnostica

[1] = system: thrombosis and bleeding time in anesthetized rats; assay: Differential effect on thrombosis inhibition and bleeding time prolongation (FIG. 7); type: in vivo, rat; settings: versus thrombin and FXa inhibitors (16A, 16B)
Experimental: FIG. 7 reports an analysis of the differential effect on thrombosis inhibition and bleeding time prolongation in anesthetized rats for the Factor XIa inhibitor, as compared with the “direct acting” thrombin and FXa active site inhibitors, namely, compounds 16A and 16B (thrombin and FXa active site inhibitors). The thrombin inhibitor (open symbols), FXa inhibitor (dotted symbols) and FXIa inhibitor (line symbols) were tested for effects on arterial thrombosis (squares), venous thrombosis (triangles) and bleeding time (circles) in rat models. Compounds were administered as loading plus sustaining infusion and the total dose is given on the x-axis.

human α-thrombin = molecular target: T2, human α-thrombin (Homo sapiens, UniProt P00734); assay: Selectivity assay thrombin; type: biochemical; settings: Table 3
T2 construct: Enzymatic activity of human α-thrombin (Sigma) was measured; purchased Sigma

[2] = system: rat plasma (ex vivo APTT); assay: Ex vivo clotting time APTT; type: in vivo; settings: for APTT Increase (X Control): average over 15-90 min
Experimental: Ex Vivo Clotting Times Ex vivo clotting time assays were used to determine the level of anticoagulation achieved in the thrombosis and bleeding time procedures, described above. A small organic compound for inhibiting Factor XIa was administered at doses (mg/kg+mg/kg/hr) of 0.5+0.5 (n=3), 2+2 (n=4), 6+6 (n=3), 12+12 (n=3) and 24+24 (n=10). Carotid artery blood (0.6 mL drawn into 1/10 volume of 3.8% Na-citrate) was sampled before (0 min control) and at 5, 15, 30, 60 and 90 min after the start of the compound infusion. The APTT was determined in freshly prepared plasma from each sample using the standard procedure for Dade Actin FSL reagent (Baxter Healthcare Corp., Miami, Fla.). The PT was determined in some animals from the 6+6 (n=3), 12+12 (n=3) and 24+24 (n=2) dose groups using Dade Thromboplastin●C reagent.
Plasma was sampled before (0 min control) and after the infusion, at intervals of 5, 15, 30, 60 and 90 min after initiating the infusion. Average APTT increases over the 15-90 min period, an interval most applicable to thrombosis and bleeding time protocols, were calculated. Control APTT values averaged 19.9±1.3 seconds overall. The PT was unaltered as expected from in vitro results. […] The range of efficacious doses in venous and arterial thrombosis (2+2, 6+6, 12+12; mg/kg+mg/kg/hr) produced an APTT increase of about 2.8 times control.

[3] = system: FeCl2-induced carotid artery thrombosis; assay: Arterial thrombosis model (FeCl2 carotid artery); type: in vivo, rat; settings: i.v. 12 mg/kg plus 12 mg/kg/hr
Experimental: General Surgical Preparation Male Sprague Dawley rats (310 to 390 g) were anesthetized with Na-pentobarbital (50 mg/kg i.p.). The left jugular vein was cannulated with PE-50 tubing for drug administration, and the trachea was intubated with PE-205 tubing to ensure airway patency. In some animals, a carotid artery was cannulated with PE-50 tubing to obtain blood samples, and a procedure was followed as described in Schumacher et al., “Comparison of Thrombin Active-Site and Exosite Inhibitors and Heparin in Experimental Models of Arterial and Venous Thrombosis and Bleeding,” J. Pharmacol. Exp. Therap., Vol. 267 (1993), at pp. 1237-42; Schumacher et al., Effects of Antithrombotic Drugs in a Rat Model of Aspirin-Insensitive Arterial Thrombosis, Thromb Haemostasis, Vol. 69 (1993), at pp. 509-514; or Schumacher et al., Effect of a Novel Thrombin Active-Site Inhibitor on Arterial and Venous Thrombosis, Eur J Pharmacol., Vol. 259 (1994), at pp. 165-171, each of which is incorporated herein by reference. […]
Arterial Thrombosis The left carotid artery was exposed and a piece of parafilm “M” (American National Can, Greenwich, Conn.) was inserted under the vessel. […] Carotid blood flow (CBF) was monitored continuously on a TA3800 physiologic recorder (Gould, Cleveland, Ohio). Total CBF was determined and normalized as percent of baseline (0 min) flow over 60 min to provide a measure of average blood flow during thrombus formation.
Statistical Analysis In the venous and arterial thrombosis procedures, treatment effects on thrombus weight, baseline blood flow, and average blood flow during thrombosis were determined by analysis of variance with Dunnett's test for comparison to the vehicle group. […] Treatment effects on bleeding times were determined by analysis of variance with Dunnett's test for comparison to the vehicle group. Both post-treatment and pre-treatment bleeding times and the relative bleeding time increases in sec were analyzed. […]

[4] = system: panel of 40 receptors and enzymes; assay: Panel of 40 receptors and enzymes (MDS Panlabs Pharmacology Services)

T1 sequence (P00748 373-615 limits assumed, other chains not shown): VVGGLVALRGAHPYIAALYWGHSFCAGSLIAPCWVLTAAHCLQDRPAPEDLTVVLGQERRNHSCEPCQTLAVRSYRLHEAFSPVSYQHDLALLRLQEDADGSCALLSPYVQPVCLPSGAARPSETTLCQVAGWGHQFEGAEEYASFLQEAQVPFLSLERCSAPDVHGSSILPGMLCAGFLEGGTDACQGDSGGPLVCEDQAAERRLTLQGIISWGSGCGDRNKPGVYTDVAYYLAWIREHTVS

- IC50 (FXIIa): > 33 µM
- separation between bleeding time prolongation and efficacy in venous and arterial thrombosis [1]: substantially greater separation
- IC50 (human α-thrombin): 10.5 µM
- inhibition or enhancement of receptor and enzyme activities [4]: No significant inhibition or enhancement
SMILES: CC(C)(C)NC(=O)N1CCN(C(=O)N2C(=O)[C@H](CCCNC(=N)N)[C@H]2C(=O)O)CC1 [Example 4]
- APTT Increase (X Control) ([2]; dose 0.5 + 0.5 mg/kg + mg/kg/hr): 1.57 ± 0.22 X Control
- APTT Increase (X Control) ([2]; dose 2 + 2 mg/kg + mg/kg/hr): 2.81 ± 0.21 X Control
- APTT Increase (X Control) ([2]; dose 6 + 6 mg/kg + mg/kg/hr): 2.73 ± 0.19 X Control
- APTT Increase (X Control) ([2]; dose 12 + 12 mg/kg + mg/kg/hr): 2.79 ± 0.26 X Control
- APTT Increase (X Control) ([2]; dose 24 + 24 mg/kg + mg/kg/hr): 3.29 ± 0.85 X Control
- APTT increase ([2]; range of efficacious doses 2+2, 6+6, 12+12 mg/kg+mg/kg/hr): about 2.8 times control
- decrease in thrombus weight ([3]; rat carotid artery, FIG. 2): 73%
- average blood flow during thrombosis and vessel patency ([3]; rat): improvement
- effect on FeCl2-induced carotid artery thrombosis (carotid blood flow, FIG. 1) ([3]; rat): prevented
